Experimental data as given in PMC9005681, “Use of AD Informer Set compounds to explore validity of novel targets in Alzheimer's disease pathology” (Alzheimer's & Dementia : Translational Research & Clinical …, 2022).
Where “and” joins values, the source holds several entries; their conditions need not be identical. Equal values may be shown once.

Assays:
Assay in all cases: PDSP GPCR panel primary binding assays at 10 μM
Details in all cases: primary assay
[1] = target: T1, cloned human or rodent CNS receptors, channels, and transporters (PDSP panel) (Homo sapiens, UniProt P21728)
T1 construct: expressed in transfected cells
T1 sequence (P21728 whole entry): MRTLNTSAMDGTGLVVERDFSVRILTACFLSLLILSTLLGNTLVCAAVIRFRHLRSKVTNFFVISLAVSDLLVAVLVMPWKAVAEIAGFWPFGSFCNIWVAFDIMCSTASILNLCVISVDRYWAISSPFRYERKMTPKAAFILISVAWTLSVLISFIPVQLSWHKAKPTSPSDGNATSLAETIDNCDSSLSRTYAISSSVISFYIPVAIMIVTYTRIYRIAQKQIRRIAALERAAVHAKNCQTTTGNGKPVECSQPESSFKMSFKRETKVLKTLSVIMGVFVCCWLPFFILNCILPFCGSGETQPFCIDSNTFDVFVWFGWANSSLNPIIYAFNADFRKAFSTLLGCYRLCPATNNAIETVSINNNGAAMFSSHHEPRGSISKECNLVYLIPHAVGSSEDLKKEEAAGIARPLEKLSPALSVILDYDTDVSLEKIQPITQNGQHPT
Description: (§1) GPCR panel: Screening against the receptors within the PDSP panel offers an assessment of off-target pharmacological activity at cloned human or rodent CNS receptors, channels, and transporters that could confound CNS-related phenotypes. A total of 46–47 primary binding assays were run in quadruplicate on these compounds at 10 μM, with follow-up secondary binding assays in 11-point dose-response in triplicate for select compounds versus select receptors. Secondary binding assays were executed for all receptors where test compound displaced an average of >50% of radio-labeled standard ligand. As an exception, no secondary assays were carried out for H3, PBR, or GABAA. […]

[2] = target: T2, cloned human or rodent CNS receptors, channels, and transporters (PDSP panel) (Homo sapiens, UniProt P31645)
T2 construct: expressed in transfected cells
T2 sequence (P31645 whole entry): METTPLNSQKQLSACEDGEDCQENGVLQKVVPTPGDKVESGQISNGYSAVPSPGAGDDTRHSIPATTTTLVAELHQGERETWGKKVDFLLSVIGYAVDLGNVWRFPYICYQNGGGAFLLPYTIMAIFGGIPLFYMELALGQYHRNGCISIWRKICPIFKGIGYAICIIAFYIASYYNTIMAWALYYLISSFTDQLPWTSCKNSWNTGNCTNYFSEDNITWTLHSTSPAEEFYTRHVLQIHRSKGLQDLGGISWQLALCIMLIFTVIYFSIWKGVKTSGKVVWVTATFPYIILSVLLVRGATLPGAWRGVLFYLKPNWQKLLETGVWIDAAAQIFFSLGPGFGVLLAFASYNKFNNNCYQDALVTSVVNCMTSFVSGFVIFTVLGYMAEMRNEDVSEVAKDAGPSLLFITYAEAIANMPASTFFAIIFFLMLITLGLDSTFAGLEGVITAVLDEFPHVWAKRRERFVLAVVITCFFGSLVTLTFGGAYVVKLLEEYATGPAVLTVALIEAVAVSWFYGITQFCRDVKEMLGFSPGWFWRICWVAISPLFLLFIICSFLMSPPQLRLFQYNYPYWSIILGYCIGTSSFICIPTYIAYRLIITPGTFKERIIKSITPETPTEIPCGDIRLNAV
Description: as §1

[3] = target: T3, cloned human or rodent CNS receptors, channels, and transporters (PDSP panel) (Homo sapiens, UniProt P08908)
T3 construct: expressed in transfected cells
T3 sequence (P08908 1-422): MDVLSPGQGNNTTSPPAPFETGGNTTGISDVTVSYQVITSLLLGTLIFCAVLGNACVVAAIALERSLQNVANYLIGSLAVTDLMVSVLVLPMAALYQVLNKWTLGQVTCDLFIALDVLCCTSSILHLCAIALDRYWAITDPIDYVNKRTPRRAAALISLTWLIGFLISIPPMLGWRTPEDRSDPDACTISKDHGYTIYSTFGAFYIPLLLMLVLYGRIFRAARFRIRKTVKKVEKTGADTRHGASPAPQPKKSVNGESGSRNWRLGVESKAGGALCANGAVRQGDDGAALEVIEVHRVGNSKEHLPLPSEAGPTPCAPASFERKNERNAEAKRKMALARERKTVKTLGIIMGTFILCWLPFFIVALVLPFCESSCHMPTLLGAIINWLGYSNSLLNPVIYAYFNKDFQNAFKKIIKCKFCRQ
Description: as §1

[4] = target: T4, cloned human or rodent CNS receptors, channels, and transporters (PDSP panel) (Homo sapiens, UniProt P25100)
T4 construct: expressed in transfected cells
T4 sequence (P25100 1-572): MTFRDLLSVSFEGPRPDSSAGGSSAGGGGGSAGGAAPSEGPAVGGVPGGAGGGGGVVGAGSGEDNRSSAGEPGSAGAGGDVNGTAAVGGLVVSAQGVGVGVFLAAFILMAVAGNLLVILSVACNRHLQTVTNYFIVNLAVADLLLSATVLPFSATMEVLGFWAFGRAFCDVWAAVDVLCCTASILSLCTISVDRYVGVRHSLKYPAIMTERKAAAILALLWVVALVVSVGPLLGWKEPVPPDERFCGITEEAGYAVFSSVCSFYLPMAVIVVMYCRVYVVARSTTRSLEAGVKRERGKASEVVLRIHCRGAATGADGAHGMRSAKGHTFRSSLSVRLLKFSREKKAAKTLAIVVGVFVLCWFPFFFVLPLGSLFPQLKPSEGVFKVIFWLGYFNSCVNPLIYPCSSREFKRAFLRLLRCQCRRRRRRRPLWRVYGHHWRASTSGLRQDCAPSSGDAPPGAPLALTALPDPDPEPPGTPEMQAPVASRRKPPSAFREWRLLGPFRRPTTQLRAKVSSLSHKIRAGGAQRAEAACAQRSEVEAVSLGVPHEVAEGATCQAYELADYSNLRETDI
Description: as §1

[5] = target: T5, cloned human or rodent CNS receptors, channels, and transporters (PDSP panel) (Homo sapiens, UniProt P21918)
T5 construct: expressed in transfected cells
T5 sequence (P21918 whole entry): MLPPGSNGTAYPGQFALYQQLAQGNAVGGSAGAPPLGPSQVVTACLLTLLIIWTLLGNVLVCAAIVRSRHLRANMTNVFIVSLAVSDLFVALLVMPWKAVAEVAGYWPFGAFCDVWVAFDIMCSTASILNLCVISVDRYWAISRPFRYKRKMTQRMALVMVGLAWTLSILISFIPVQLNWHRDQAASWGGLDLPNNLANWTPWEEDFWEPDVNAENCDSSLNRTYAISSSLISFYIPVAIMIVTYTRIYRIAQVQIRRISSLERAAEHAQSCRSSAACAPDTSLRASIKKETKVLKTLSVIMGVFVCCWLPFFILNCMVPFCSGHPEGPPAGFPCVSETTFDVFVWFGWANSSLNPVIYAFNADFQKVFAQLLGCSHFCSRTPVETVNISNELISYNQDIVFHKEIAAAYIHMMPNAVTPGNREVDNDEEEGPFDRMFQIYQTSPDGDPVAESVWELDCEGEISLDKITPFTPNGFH
Description: as §1

[6] = target: T6, cloned human or rodent CNS receptors, channels, and transporters (PDSP panel) (Homo sapiens, UniProt P23975)
T6 construct: expressed in transfected cells
T6 sequence (P23975 whole entry): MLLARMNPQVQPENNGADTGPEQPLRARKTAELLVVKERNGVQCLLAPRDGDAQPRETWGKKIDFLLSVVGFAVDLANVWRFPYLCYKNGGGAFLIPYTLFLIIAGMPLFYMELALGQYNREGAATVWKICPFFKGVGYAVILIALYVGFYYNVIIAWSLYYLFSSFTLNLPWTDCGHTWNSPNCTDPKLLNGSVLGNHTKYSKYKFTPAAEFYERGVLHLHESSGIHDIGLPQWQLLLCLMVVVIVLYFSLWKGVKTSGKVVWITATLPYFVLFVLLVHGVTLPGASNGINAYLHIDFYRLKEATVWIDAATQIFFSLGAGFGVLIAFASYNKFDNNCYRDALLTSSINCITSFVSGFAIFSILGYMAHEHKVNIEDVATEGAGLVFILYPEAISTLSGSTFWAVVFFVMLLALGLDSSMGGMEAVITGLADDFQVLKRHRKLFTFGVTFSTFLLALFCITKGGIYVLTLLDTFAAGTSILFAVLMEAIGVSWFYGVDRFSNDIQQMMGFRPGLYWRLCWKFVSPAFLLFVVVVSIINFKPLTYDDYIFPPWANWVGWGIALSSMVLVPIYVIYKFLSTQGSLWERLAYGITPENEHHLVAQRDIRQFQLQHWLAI
Description: as §1

[7] = target: T7, cloned human or rodent CNS receptors, channels, and transporters (PDSP panel) (Homo sapiens, UniProt P28335)
T7 construct: expressed in transfected cells
T7 sequence (P28335 33-458): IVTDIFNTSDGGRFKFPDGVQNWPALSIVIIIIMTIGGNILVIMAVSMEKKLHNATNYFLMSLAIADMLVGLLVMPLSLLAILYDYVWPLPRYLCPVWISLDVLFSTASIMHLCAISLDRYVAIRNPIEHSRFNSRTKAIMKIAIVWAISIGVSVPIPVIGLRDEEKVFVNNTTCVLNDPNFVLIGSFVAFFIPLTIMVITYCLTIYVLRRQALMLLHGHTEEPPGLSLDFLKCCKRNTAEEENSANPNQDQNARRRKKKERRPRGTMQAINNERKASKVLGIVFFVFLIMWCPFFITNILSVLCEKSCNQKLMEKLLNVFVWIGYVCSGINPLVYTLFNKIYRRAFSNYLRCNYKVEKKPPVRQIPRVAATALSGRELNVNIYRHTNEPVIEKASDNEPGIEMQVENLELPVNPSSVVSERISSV
Description: as §1

[8] = target: T8, cloned human or rodent CNS receptors, channels, and transporters (PDSP panel) (Homo sapiens, UniProt P28222)
T8 construct: expressed in transfected cells
T8 sequence (P28222 whole entry): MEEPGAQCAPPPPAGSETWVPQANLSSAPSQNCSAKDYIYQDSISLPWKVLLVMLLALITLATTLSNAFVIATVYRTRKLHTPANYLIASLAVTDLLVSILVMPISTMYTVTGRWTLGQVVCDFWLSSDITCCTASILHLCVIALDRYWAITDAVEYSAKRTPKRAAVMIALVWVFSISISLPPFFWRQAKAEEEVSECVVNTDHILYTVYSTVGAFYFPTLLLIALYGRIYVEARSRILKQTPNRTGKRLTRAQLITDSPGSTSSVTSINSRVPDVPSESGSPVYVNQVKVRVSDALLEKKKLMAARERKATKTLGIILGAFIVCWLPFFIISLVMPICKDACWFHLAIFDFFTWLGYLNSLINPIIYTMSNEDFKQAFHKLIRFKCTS
Description: as §1

[9] = target: T9, cloned human or rodent CNS receptors, channels, and transporters (PDSP panel) (Homo sapiens, UniProt P41595)
T9 construct: expressed in transfected cells
T9 sequence (P41595 whole entry): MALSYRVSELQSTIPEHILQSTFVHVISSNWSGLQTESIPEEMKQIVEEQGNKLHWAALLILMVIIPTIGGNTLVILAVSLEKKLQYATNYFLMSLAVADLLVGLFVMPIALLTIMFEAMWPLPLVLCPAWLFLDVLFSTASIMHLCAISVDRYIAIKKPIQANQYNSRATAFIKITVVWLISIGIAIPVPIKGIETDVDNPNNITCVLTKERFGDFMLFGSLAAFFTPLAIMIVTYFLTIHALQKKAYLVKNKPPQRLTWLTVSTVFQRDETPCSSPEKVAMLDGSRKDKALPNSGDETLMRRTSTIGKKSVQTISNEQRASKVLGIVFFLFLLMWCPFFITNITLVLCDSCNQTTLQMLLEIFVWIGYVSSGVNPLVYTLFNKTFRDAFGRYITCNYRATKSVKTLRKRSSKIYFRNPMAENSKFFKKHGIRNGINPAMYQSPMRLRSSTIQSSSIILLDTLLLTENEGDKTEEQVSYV
Description: as §1

O=c1oc2ccccc2cc1-c1cn2cc(Cc3ccc(F)cc3)sc2n1 [UNC10302680A, iMDK]
Inhibition 1 ([1]; Receptor D1, 10 μM): 5.91% | Inhibition 2 ([1]; Receptor D1, 10 μM): 9.31% | Inhibition 3 ([1]; Receptor D1, 10 μM): -0.89% | Inhibition 4 ([1]; Receptor D1, 10 μM): -9.8% | Mean % ([1]; Receptor D1, 10 μM, mean of Inhibition 1-4): 1.13% | Inhibition 1 ([2]; Receptor SERT, 10 μM): -12.44% and -8.39% | Inhibition 4 ([2]; Receptor SERT, 10 μM): -3% and 3.01% | Mean % ([2]; Receptor SERT, 10 μM, mean of Inhibition 1-4): -8.37% and -12.73% | Inhibition 1 ([3]; Receptor 5-HT1A, 10 μM): 5.77% | Inhibition 2 ([3]; Receptor 5-HT1A, 10 μM): 4.57% | Inhibition 3 ([3]; Receptor 5-HT1A, 10 μM): -6.98% | Inhibition 4 ([3]; Receptor 5-HT1A, 10 μM): 3.71% | Mean % ([3]; Receptor 5-HT1A, 10 μM, mean of Inhibition 1-4): 1.77% | Inhibition 1 ([4]; Receptor Alpha1D, 10 μM): -7.71% | Inhibition 2 ([4]; Receptor Alpha1D, 10 μM): -9.56% | Inhibition 3 ([4]; Receptor Alpha1D, 10 μM): -10.98% | Inhibition 4 ([4]; Receptor Alpha1D, 10 μM): -17.23% | Mean % ([4]; Receptor Alpha1D, 10 μM, mean of Inhibition 1-4): -11.37% | Inhibition 1 ([5]; Receptor D5, 10 μM): 22.41% | Inhibition 2 ([5]; Receptor D5, 10 μM): 16.72% | Inhibition 3 ([5]; Receptor D5, 10 μM): -1.22% | Inhibition 4 ([5]; Receptor D5, 10 μM): 7.82% | Mean % ([5]; Receptor D5, 10 μM, mean of Inhibition 1-4): 11.43% | Mean % ([6]; NET, mean inhibition): 3.1% | Inhibition 1 ([6]; NET, replicate 1): -7.15% | Inhibition 2 ([6]; NET, replicate 2): -15.77% | Inhibition 3 ([6]; NET, replicate 3): -1.08% | Inhibition 4 ([6]; NET, replicate 4): 36.38% | Inhibition 1 ([6]; Receptor NET, 10 μM): 34.12% | Inhibition 2 ([6]; Receptor NET, 10 μM): 0.12% | Inhibition 3 ([6]; Receptor NET, 10 μM): -3.41% | Inhibition 4 ([6]; Receptor NET, 10 μM): -3.8% | Mean % ([6]; Receptor NET, 10 μM, mean of Inhibition 1-4): 6.76% | Inhibition 1 ([7]; Receptor 5-HT2C, 10 μM): 16.2% | Inhibition 2 ([7]; Receptor 5-HT2C, 10 μM): -2.94% | Inhibition 3 ([7]; Receptor 5-HT2C, 10 μM): -21.1% | Inhibition 4 ([7]; Receptor 5-HT2C, 10 μM): -2.94% | Mean % ([7]; Receptor 5-HT2C, 10 μM, mean of Inhibition 1-4): -2.7% | Inhibition 1 ([8]; Receptor 5-HT1B, 10 μM): 28.3% | Inhibition 2 ([8]; Receptor 5-HT1B, 10 μM): -13.17% | Inhibition 3 ([8]; Receptor 5-HT1B, 10 μM): 0.98% | Inhibition 4 ([8]; Receptor 5-HT1B, 10 μM): -13.17% | Mean % ([8]; Receptor 5-HT1B, 10 μM, mean of Inhibition 1-4): 0.74% | Inhibition 1 ([9]; Receptor 5-HT2B, 10 μM): 9.18% | Inhibition 2 ([9]; Receptor 5-HT2B, 10 μM): -38.65% | Inhibition 3 ([9]; Receptor 5-HT2B, 10 μM): -23.13% | Inhibition 4 ([9]; Receptor 5-HT2B, 10 μM): -31.52% | Mean % ([9]; Receptor 5-HT2B, 10 μM, mean of Inhibition 1-4): -21.03%

CNc1nc(C)nc(N[C@H]2CCC[C@@H](C(=O)NCc3ccc(C#N)cc3C(F)(F)F)C2)n1 [UNC10302679A, GSK2256294A]
Mean % ([1]; D1, mean inhibition): 9.96% | Inhibition 1 ([1]; D1, replicate 1): 12.39% | Inhibition 2 ([1]; D1, replicate 2): 11.9% | Inhibition 3 ([1]; D1, replicate 3): 10.77% | Inhibition 4 ([1]; D1, replicate 4): 4.78% | Mean % ([2]; SERT, mean inhibition): 7.19% and 15.11% | Inhibition 1 ([2]; SERT, replicate 1): 10.02% and 22.3% | Inhibition 2 ([2]; SERT, replicate 2): -5.87% and 16.69% | Inhibition 3 ([2]; SERT, replicate 3): 7.61% and 10.49% | Inhibition 4 ([2]; SERT, replicate 4): 16.99% and 10.96% | Mean % ([3]; 5-HT1A, mean inhibition): 4.14% | Inhibition 1 ([3]; 5-HT1A, replicate 1): 11.98% | Inhibition 2 ([3]; 5-HT1A, replicate 2): 4.74% | Inhibition 3 ([3]; 5-HT1A, replicate 3): -9.57% | Inhibition 4 ([3]; 5-HT1A, replicate 4): 9.39% | Mean % ([4]; Alpha1D, mean inhibition): -12.86% | Inhibition 1 ([4]; Alpha1D, replicate 1): -4.16% | Inhibition 2 ([4]; Alpha1D, replicate 2): -21.92% | Inhibition 3 ([4]; Alpha1D, replicate 3): -15.38% | Inhibition 4 ([4]; Alpha1D, replicate 4): -9.98% | Mean % ([5]; D5, mean inhibition): -9.97% | Inhibition 1 ([5]; D5, replicate 1): 0.61% | Inhibition 2 ([5]; D5, replicate 2): -8.1% | Inhibition 3 ([5]; D5, replicate 3): -21.39% | Inhibition 4 ([5]; D5, replicate 4): -11% | Mean % ([6]; NET, mean inhibition): -0.13% and 6.71% | Inhibition 1 ([6]; NET, replicate 1): 26.63% and -24.8% | Inhibition 2 ([6]; NET, replicate 2): 1.57% and -7.07% | Inhibition 3 ([6]; NET, replicate 3): -2.48% and 7.39% | Inhibition 4 ([6]; NET, replicate 4): -26.22% and 51.32% | Mean % ([7]; 5-HT2C, mean inhibition): -14.6% | Inhibition 1 ([7]; 5-HT2C, replicate 1): 12.76% | Inhibition 2 ([7]; 5-HT2C, replicate 2): -11.29% | Inhibition 3 ([7]; 5-HT2C, replicate 3): -33.87% | Inhibition 4 ([7]; 5-HT2C, replicate 4): -26.01% | Mean % ([8]; 5-HT1B, mean inhibition): -2.56% | Inhibition 1 ([8]; 5-HT1B, replicate 1): 6.88% | Inhibition 2 ([8]; 5-HT1B, replicate 2): -14.35% | Inhibition 3 ([8]; 5-HT1B, replicate 3): 0.2% | Inhibition 4 ([8]; 5-HT1B, replicate 4): -2.95% | Mean % ([9]; 5-HT2B, mean inhibition): -22.71% | Inhibition 1 ([9]; 5-HT2B, replicate 1): -0.89% | Inhibition 2 ([9]; 5-HT2B, replicate 2): -25.64% | Inhibition 3 ([9]; 5-HT2B, replicate 3): -26.48% | Inhibition 4 ([9]; 5-HT2B, replicate 4): -37.81%
